# Patent publication US20130095122A1, “Peptides or Antibodies Which Bind to Melanoma Inhibitory Activity (MIA) Protein” (priority 2010, published 2013)
# Tested on: Sox9 mRNA in human MSC
# Assay: Micromass assay (chondrogenic differentiation induced by TGFβ3)
# Assay type: cell-based
# Settings: after days 3 and 7 (FIG. 8)
# Experimental: For analysis of chondrogenesis human MSC differentiation was performed in high density culture. For this, 3×10^5 cells were seeded into each well of a six-well plate. Cells were cultured for the indicated period in induction medium including DMEM (PAA), high glucose (Sigma), 20% fetal calf serum (FCS, PAN Biotech GmbH), MEM Vitamins (Invitrogen), penicillin (100 U/ml), streptomycin (10 μg/ml) (both Sigma), Amphotericin B (2.5 μg/ml) (PAN Biotech GmbH), 0.1 μM dexamethasone, 1 mM sodium pyruvate, 0.17 mM ascorbic acid-2-phosphate, 0.35 mM proline (all Sigma), insulin (5 μg/ml), transferring (5 μg), selenious acid (5 ng) (ITS Premix, Becton Dickinson) and 10 ng/ml human TGF-β3 (R&D Systems). The medium was changed every second day. All groups were done in triplicate. Each experiment was repeated three times. Analysis was performed on RNA level.
substance,measurement,value
HHH (Peptide Sequence identified from HTFP assay screening) [JPT71],induction of Sox9 mRNA by TGFβ3,inhibit the induction of Sox9 mRNA by TGFβ3 significantly
